{
  "source": "patent US11413278B2",
  "about": "“Compounds and methods for promoting stress resistance” (priority 2015, dated 2022)",
  "key": {"FOXO3": {"system": "FOXO3", "assay": "FOXO3 siRNA knockdown: dependency for H2O2-resistance", "format": "cell-based, human", "description": "For qPCR analysis, WI-38 cells were treated with small molecules (at 10 μM) (biological quadruplicates) for 24 hrs and processed for RNA isolation and reverse transcription (RT) with the Cells-to-Ct Kit (Life Technologies), following manufacturer's instructions. RT products were diluted with H2O and used for qPCR analysis on an ABI 7300 system (Life Technologies) (technical triplicates). Relative expression levels of target genes were normalized to the genes B2M, PPIA and GAPDH. To knock down the expression of FOXO3 or NRF2, WI-38 cells were transfected, using the RNAiMAX reagents (Life Technologies), with siRNA oligos (at 10 nM final concentration, 10 ml culture medium) for FOXO3 (Life Technologies) or NRF2 (Integrated DNA Technologies) on 10-cm petri dishes for 36 hrs, and then detached and aliquoted onto 96-well (for qPCR analysis) or 384-well plates (for H2O2-stress treatment). ˜24 hrs later, small molecules were introduced and incubated with cells for 24 hrs. Cells were then either processed with the Cells-to-Ct Kit to prepare RT products for qPCR analysis or subjected to H2O2 (700 μM) for 3 hrs and assayed for viability. The knockdown efficiency of FOXO3 or NRF2 was checked at 36 hrs post-transfection and at the end as well. […]\nApplicants used siRNA to knock down FOXO3 expression by ˜70% in an attempt to identify whether the activation of these genes depends on activity of FOXO3 and/or NRF2. […] We used siRNA to knock down FOXO3 expression by ˜60% to 70% (FIG. 3; see data in Table 6). […] (Given the caveat that FOXO3 was not fully knocked down, partial dependency was scored when the H2O2-resistance capacity was reduced by at least 25% but less than 50% upon siRNA knockdown). At least for Gr-7A and Gr-7C, which are structurally related, the observed FOXO3-dependency for H2O2-resistance is consistent with their strong effects to induce FOXO3 target genes (Tables 1a-1f, Table 6, & Table 15), including SOD2 and GADD45A."}, "C. elegans": {"system": "C. elegans", "assay": "C. elegans lifespan assays (liquid and plate)", "format": "in vivo, Caenorhabditis elegans", "conditions": "for ILS at 60 µM / ILS at 66 µM: Caenorhabditis elegans; for O = Life span- extending scores in worms: score scale 0 to 2, 4 to 6 independent trials; for M = Lifespan-extending scores in worms: summary score"}, "[1]": {"system": "HTB-178 lung tumor cells (EGFR+, PIK3CA+, RB1−, TP53−)", "assay": "Killing effects on HTB-178 tumor cells", "format": "cell-based, human", "conditions": "Assay 1(y); at 10 uM, 1st"}, "human protein targets": {"system": "human protein targets", "conditions": "PubChem database queries; cited from earlier work"}, "[2]": {"conditions": "in liquid, wild type, with FuDR, 1.0 × 10^9 bacteria/ml, read-out: relative change of mean lifespan vs control, Trial 1"}, "[3]": {"conditions": "in liquid, wild type, with FuDR, 2.5 × 10^9 bacteria/ml, read-out: relative change of mean lifespan vs control, Trial 2"}, "[4]": {"conditions": "on plate, CF512 temperature-sensitive sterile animals, without FuDR, 2.0 × 10^10 bacteria/ml, read-out: relative change of mean lifespan vs control, Trial 3"}, "[5]": {"conditions": "Assay 2(z), 1.0 × 10^9 bacteria/ml, wild type + FuDR (2012 July), read-out: Lifespan assay in liquid"}, "[6]": {"conditions": "Assay 3(aa), 2.5 × 10^9 bacteria/ml, wild type + FuDR, read-out: Lifespan assay in liquid"}, "[7]": {"conditions": "Assay 4(ab), 2.0 × 10^10 bacteria/ml, CF512 worms, no FuDR, read-out: Lifespan assay on plates"}},
  "note": "Like-named read-outs stand apart in the source and are kept apart here.",
  "data": [
    {"smiles": "CC1C(=O)C(C)C(c2cc(Cl)ccc2O)NC1c1cc(Cl)ccc1O", "note": "(centres unmarked) [O6]", "values": [
      {"measurement": "I = FOXO3-dependency for H2O2-resistance", "setting": "FOXO3; score", "result": 0},
      {"measurement": "I = FOXO3-dependency for H2O2-resistance", "setting": "FOXO3; summary score", "result": 0},
      {"measurement": "ILS at 60 µM", "setting": "C. elegans; [2]", "result": 28.3, "unit": "%"},
      {"measurement": "ILS at 60 µM", "setting": "C. elegans; [3]", "result": 10.3, "unit": "%"},
      {"measurement": "ILS at 60 µM", "setting": "C. elegans; [4]", "result": 3.9, "unit": "%"},
      {"measurement": "ILS at 66 µM", "setting": "C. elegans; [5]", "result": 28.3, "unit": "%"},
      {"measurement": "ILS at 66 µM", "setting": "C. elegans; [6]", "result": 10.3, "unit": "%"},
      {"measurement": "ILS at 66 µM", "setting": "C. elegans; [7]", "result": 3.9, "unit": "%"},
      {"measurement": "O = Life span- extending scores in worms", "setting": "C. elegans", "result": "1 (1 for lifespan extension observed in 2 trials)"},
      {"measurement": "M = Lifespan-extending scores in worms", "setting": "C. elegans", "result": "1 (1 for lifespan extension observed in 2 trials)"},
      {"measurement": "Potential killing effects on HTB-178 tumor cells, 1st", "setting": "[1]", "result": "YES;"},
      {"measurement": "Potential targets: human protein targets (confirmed)", "setting": "human protein targets", "result": "ADAM10, ADAM17, ATXN2, GLP1R, IDH1, IL1B, KCNE1, KCNQ1, NTSR1"}
    ]},
    {"smiles": "Oc1ncnc2sc3c(c12)CCC3", "note": "[O14]", "values": [
      {"measurement": "I = FOXO3-dependency for H2O2-resistance", "setting": "FOXO3; score", "result": 0},
      {"measurement": "I = FOXO3-dependency for H2O2-resistance", "setting": "FOXO3; summary score", "result": 0},
      {"measurement": "ILS at 60 µM", "setting": "C. elegans; [2]", "result": 13.7, "unit": "%"},
      {"measurement": "ILS at 60 µM", "setting": "C. elegans; [3]", "result": 5.8, "unit": "%"},
      {"measurement": "ILS at 60 µM", "setting": "C. elegans; [4]", "result": 11.3, "unit": "%"},
      {"measurement": "ILS at 66 µM", "setting": "C. elegans; [5]", "result": 13.7, "unit": "%"},
      {"measurement": "ILS at 66 µM", "setting": "C. elegans; [6]", "result": 5.8, "unit": "%"},
      {"measurement": "ILS at 66 µM", "setting": "C. elegans; [7]", "result": 11.3, "unit": "%"},
      {"measurement": "Lifespan extension of C. elegans", "setting": "C. elegans; across independent trials", "result": "≥ 10", "unit": "%"},
      {"measurement": "Extension of C. elegans' lifespan (qualitative)", "setting": "C. elegans; in at least 3 to 4 trials, group range ~10% to ~50%", "result": "could extend animal's lifespan"},
      {"measurement": "Trials with lifespan extension", "setting": "C. elegans; positive of total trials", "result": "3 of 3"},
      {"measurement": "O = Life span- extending scores in worms", "setting": "C. elegans", "result": "2 (2 for observed in more than 2 trials)"},
      {"measurement": "M = Lifespan-extending scores in worms", "setting": "C. elegans", "result": "2 (2 for observed in more than 2 trials)"},
      {"measurement": "Potential targets: human protein targets (confirmed)", "setting": "human protein targets", "result": "TRHR"}
    ]},
    {"smiles": "Cc1cc(C)c(C(=O)/C=C/c2ccccc2F)c(O)n1", "note": "[O18]", "values": [
      {"measurement": "FOXO3-dependency for H2O2-resistance, at 10 uM (experiment 3) - with & without H2O2", "setting": "FOXO3; 10 uM, experiment 3, with & without H2O2", "result": "YES"},
      {"measurement": "FOXO3-dependency for H2O2-resistance (experiment 3)", "setting": "FOXO3; 10 uM, with & without H2O2, FOXO3 knockdown in WI-38 cells, YES = resistance reduced by at least 50%, partial = 25% to 50%", "result": "YES"},
      {"measurement": "I = FOXO3-dependency for H2O2-resistance", "setting": "FOXO3; score", "result": 0},
      {"measurement": "I = FOXO3-dependency for H2O2-resistance", "setting": "FOXO3; summary score", "result": 0},
      {"measurement": "ILS at 60 µM", "setting": "C. elegans; [2]", "result": 22.1, "unit": "%"},
      {"measurement": "ILS at 60 µM", "setting": "C. elegans; [3]", "result": 11.8, "unit": "%"},
      {"measurement": "ILS at 60 µM", "setting": "C. elegans; [4]", "result": 3.8, "unit": "%"},
      {"measurement": "ILS at 66 µM", "setting": "C. elegans; [5]", "result": 22.1, "unit": "%"},
      {"measurement": "ILS at 66 µM", "setting": "C. elegans; [6]", "result": 11.8, "unit": "%"},
      {"measurement": "ILS at 66 µM", "setting": "C. elegans; [7]", "result": 3.8, "unit": "%"},
      {"measurement": "O = Life span- extending scores in worms", "setting": "C. elegans", "result": "1 (1 for lifespan extension observed in 2 trials)"},
      {"measurement": "M = Lifespan-extending scores in worms", "setting": "C. elegans", "result": "1 (1 for lifespan extension observed in 2 trials)"},
      {"measurement": "Potential targets: human protein targets (confirmed)", "setting": "human protein targets", "result": "JAK2"}
    ]},
    {"smiles": "CC(C)(C)c1ccc(OCC(=O)Nc2ccc3c4c(cccc24)C(=O)NC3=O)cc1", "note": "[O22]", "values": [
      {"measurement": "I = FOXO3-dependency for H2O2-resistance", "setting": "FOXO3; score", "result": 0},
      {"measurement": "I = FOXO3-dependency for H2O2-resistance", "setting": "FOXO3; summary score", "result": 0},
      {"measurement": "ILS at 60 µM", "setting": "C. elegans; [2]", "result": -24.5, "unit": "%"},
      {"measurement": "ILS at 60 µM", "setting": "C. elegans; [3]", "result": -2.3, "unit": "%"},
      {"measurement": "ILS at 60 µM", "setting": "C. elegans; [4]", "result": -52.8, "unit": "%"},
      {"measurement": "ILS at 66 µM", "setting": "C. elegans; [5]", "result": -24.5, "unit": "%"},
      {"measurement": "ILS at 66 µM", "setting": "C. elegans; [6]", "result": -2.3, "unit": "%"},
      {"measurement": "ILS at 66 µM", "setting": "C. elegans; [7]", "result": -52.8, "unit": "%"},
      {"measurement": "O = Life span- extending scores in worms", "setting": "C. elegans", "result": 0},
      {"measurement": "M = Lifespan-extending scores in worms", "setting": "C. elegans", "result": 0},
      {"measurement": "Potential targets: human protein targets (confirmed)", "setting": "human protein targets", "result": "APOBEC3F, CFTR, NCOA3, OPRD1, OPRM1, PPARG, S1PR4, TDP1"}
    ]}
  ]
}
